System: haploid sorghum plants
Experiment: Chromosome doubling of haploid sorghum plants by root treatment with colchicine
Type: in vivo
Conditions: colchicine 0.05%, 5 hours, roots
From the text: Plants from diploid sorghum genotypes, “PHI01”, “PHI02”, “PHI03”, “PHI04”, “PHI05”, “PHI06”, “PHI07”, “PHI08”, “PHI09”, “PHI10”, “PHI11”, “PHI12”, “PHI13”, “PHI14”, “PHI15”, “PHI16”, “PHI17”, “PHI18”, “PHI19”, and “PHI20” were pollinated with pollen obtained from pearl millet line PHI01A, as described in Example 2. Immature haploid embryos were isolated, as described in Example 2, 10-20 days after pollination and embryo sizes ranged from 0.1-3 mm long. These haploid embryos were germinated on a medium (see Table 4) in the dark. The germinated haploid embryos were then transferred to fresh media for an additional 7-10 days at 21°−26° C. in the dark until germinated plantlets formed. The germinated plantlets were then transferred to a light culture room and grown at 21°−26° C. for another 2-3 weeks until healthy plantlets having good roots developed. These plantlets were then potted into soil and grown in a regular greenhouse for 5-6 weeks. Upon healthy plant establishment, the roots were treated with a chromosome doubling agent, colchicine, for 5 hours in the dark. Additional chromosome doubling agents for example, pronamide, dithipyr, oryzalin, AMP, and trifluralin, or any of the other chromosome doubling agents referenced in Table 1 can also be used. After treatment with the doubling agent, the roots were then thoroughly rinsed with running water for 30 min, to remove the residual doubling agent and then potted in soil and grown to maturity.

[1] = PHI01/2018, 15 haploid plants treated
[2] = PHI02/2018, 63 haploid plants treated
[3] = PHI02/2019, 17 haploid plants treated
[4] = PHI02/2020, 13 haploid plants treated
[5] = PHI03/2018, 20 haploid plants treated
[6] = PHI04/2018, 9 haploid plants treated
[7] = PHI05/2018, 3 haploid plants treated
[8] = PHI05/2019, 4 haploid plants treated
[9] = PHI05/2020, 1 haploid plant treated
[10] = PHI06/2018, 24 haploid plants treated
[11] = PHI07/2018, 24 haploid plants treated
[12] = PHI08/2018, 2 haploid plants treated
[13] = PHI09/2018, 8 haploid plants treated
[14] = PHI09/2019, 14 haploid plants treated
[15] = PHI09/2020, 10 haploid plants treated
[16] = PHI10/2018, 38 haploid plants treated
[17] = PHI10/2019, 36 haploid plants treated
[18] = PHI10/2020, 25 haploid plants treated
[19] = PHI11/2019, 2 haploid plants treated
[20] = PHI11/2020, 2 haploid plants treated
[21] = PHI12/2019, 8 haploid plants treated
[22] = PHI12/2020, 1 haploid plant treated
[23] = PHI13/2019, 30 haploid plants treated
[24] = PHI13/2020, 18 haploid plants treated
[25] = PHI14/2019, 53 haploid plants treated
[26] = PHI14/2020, 14 haploid plants treated
[27] = PHI15/2019, 15 haploid plants treated
[28] = PHI15/2020, 5 haploid plants treated
[29] = PHI16/2019, 27 haploid plants treated
[30] = PHI17/2020, 4 haploid plants treated
[31] = PHI18/2020, 6 haploid plants treated
[32] = PHI19/2020, 23 haploid plants treated
[33] = PHI20/2020, 9 haploid plants treated
[34] = Sum of all genotypes/years, 543 haploid plants treated

COc1cc2c(c(OC)c1OC)-c1ccc(OC)c(=O)cc1[C@@H](NC(C)=O)CC2 [Colchicine, (S)-N-(5,6,7,9-tetrahydro-1,2,3,10-tetramethoxy-9-oxobenzo (a)heptalen-7-yl) acetamide]
DH Success rate (%) [1]: 100% | Number of Fully Fertile DH plants [1]: 15 | Number of plants survived after treatment [1]: 15 | DH Success rate (%) [2]: 98% | Number of Fully Fertile DH plants [2]: 62 | Number of plants survived after treatment [2]: 62 | DH Success rate (%) [3]: 100% | Number of Fully Fertile DH plants [3]: 17 | Number of plants survived after treatment [3]: 17 | DH Success rate (%) [4]: 100% | Number of Fully Fertile DH plants [4]: 13 | Number of plants survived after treatment [4]: 13 | DH Success rate (%) [5]: 100% | Number of Fully Fertile DH plants [5]: 20 | Number of plants survived after treatment [5]: 20 | DH Success rate (%) [6]: 100% | Number of Fully Fertile DH plants [6]: 9 | Number of plants survived after treatment [6]: 9 | DH Success rate (%) [7]: 100% | Number of Fully Fertile DH plants [7]: 3 | Number of plants survived after treatment [7]: 3 | DH Success rate (%) [8]: 100% | Number of Fully Fertile DH plants [8]: 4 | Number of plants survived after treatment [8]: 4 | DH Success rate (%) [9]: 100% | Number of Fully Fertile DH plants [9]: 1 | Number of plants survived after treatment [9]: 1 | DH Success rate (%) [10]: 100% | Number of Fully Fertile DH plants [10]: 24 | Number of plants survived after treatment [10]: 24 | DH Success rate (%) [11]: 96% | Number of Fully Fertile DH plants [11]: 23 | Number of plants survived after treatment [11]: 23 | DH Success rate (%) [12]: 100% | Number of Fully Fertile DH plants [12]: 2 | Number of plants survived after treatment [12]: 2 | DH Success rate (%) [13]: 100% | Number of Fully Fertile DH plants [13]: 8 | Number of plants survived after treatment [13]: 8 | DH Success rate (%) [14]: 93% | Number of Fully Fertile DH plants [14]: 13 | Number of plants survived after treatment [14]: 14 | DH Success rate (%) [15]: 100% | Number of Fully Fertile DH plants [15]: 10 | Number of plants survived after treatment [15]: 10 | DH Success rate (%) [16]: 100% | Number of Fully Fertile DH plants [16]: 38 | Number of plants survived after treatment [16]: 38 | DH Success rate (%) [17]: 97% | Number of Fully Fertile DH plants [17]: 35 | Number of plants survived after treatment [17]: 35 | DH Success rate (%) [18]: 100% | Number of Fully Fertile DH plants [18]: 25 | Number of plants survived after treatment [18]: 25 | DH Success rate (%) [19]: 100% | Number of Fully Fertile DH plants [19]: 2 | Number of plants survived after treatment [19]: 2 | DH Success rate (%) [20]: 100% | Number of Fully Fertile DH plants [20]: 2 | Number of plants survived after treatment [20]: 2 | DH Success rate (%) [21]: 100% | Number of Fully Fertile DH plants [21]: 8 | Number of plants survived after treatment [21]: 8 | DH Success rate (%) [22]: 100% | Number of Fully Fertile DH plants [22]: 1 | Number of plants survived after treatment [22]: 1 | DH Success rate (%) [23]: 100% | Number of Fully Fertile DH plants [23]: 30 | Number of plants survived after treatment [23]: 30 | DH Success rate (%) [24]: 100% | Number of Fully Fertile DH plants [24]: 18 | Number of plants survived after treatment [24]: 18 | DH Success rate (%) [25]: 98% | Number of Fully Fertile DH plants [25]: 52 | Number of plants survived after treatment [25]: 52 | DH Success rate (%) [26]: 93% | Number of Fully Fertile DH plants [26]: 13 | Number of plants survived after treatment [26]: 13 | DH Success rate (%) [27]: 100% | Number of Fully Fertile DH plants [27]: 15 | Number of plants survived after treatment [27]: 15 | DH Success rate (%) [28]: 100% | Number of Fully Fertile DH plants [28]: 5 | Number of plants survived after treatment [28]: 5 | DH Success rate (%) [29]: 100% | Number of Fully Fertile DH plants [29]: 27 | Number of plants survived after treatment [29]: 27 | DH Success rate (%) [30]: 100% | Number of Fully Fertile DH plants [30]: 4 | Number of plants survived after treatment [30]: 4 | DH Success rate (%) [31]: 100% | Number of Fully Fertile DH plants [31]: 6 | Number of plants survived after treatment [31]: 6 | DH Success rate (%) [32]: 100% | Number of Fully Fertile DH plants [32]: 23 | Number of plants survived after treatment [32]: 23 | DH Success rate (%) [33]: 100% | Number of Fully Fertile DH plants [33]: 9 | Number of plants survived after treatment [33]: 9 | DH Success rate (%) [34]: 99% | Number of Fully Fertile DH plants [34]: 537 | Number of plants survived after treatment [34]: 538
